“Also recorded” adds a separate entry of the source. Strand notation (5' to 3'): a small letter for the sugar, then the base; units joined by * are phosphorothioate-linked, units joined directly phosphodiester-linked; [ ] holds rarer units or linkages, { } end groups; capitals alone tell only the bases. Primed or numbered codes have the meaning given here. Where no end group is shown, it is not given here. [ ]: non-standard residue; d: D form. The star is where a group is joined. 5FAM = O=C1OC2(c3ccc(O)cc3Oc3cc(O)ccc32)c2ccc(C(=O)*)cc21; PEG2′ = not defined here; d = 2'-deoxy (DNA); CPQ2 = quencher
Legend:
FRET-PAP11 = test system: T1, FRET-PAP11
T1 sequence: GGGSGRSANAKGKGC

LbaCas12a [1] = experiment: Cas12a fluorescent cleavage assay with urine of mice injected with DNA activators; assay type: in vivo, Lachnospiraceae bacterium ND2006; settings: urine collected after 1 h added to reaction
Description: (§1) In particular, the Cas12a from Lachnospiraceae bacterium ND2006 (LbaCas12a, UniProtKB Accession No. A0A182DWE3) assembled with guide CRISPR RNA sequences (crRNAs) recognizes 1) a T nucleotide-rich protospacer-adjacent motif (PAM) to target double-stranded DNA (dsDNA), or 2) single-stranded DNA (ssDNA) through sequence complementarity in a PAM-independent manner, and unleashes a robust, nonspecific ssDNA trans-cleavage activity that can be monitored using a fluorophore (F)-quencher (Q)-labeled reporter (FIG. 2A) (Chen et al. Science 360, 436-439 (2018)). […] In Table 6, activation of Cas12a with native and modified DNA oligos was quantified in the Cas12a fluorescent cleavage assay. […]
(§2) LbCas12a (final concentration 100 nM, New England Biolabs) was incubated with 1× NEB BUFFER™ 2.1, crRNA (250 nM, IDT) and complementary DNA activators (4 nM unless specifically described, IDT, in solution or spiked in urine) or urine samples collected from experimental animals at 37° C. for 30 min. […] LbCas12a activation was detected at 37° C. every 2 min for 3 hours by measuring fluorescence with plate reader Tecan Infinite Pro M200 (λex: 485 nm and λem: 535 nm). Fluorescence for background conditions (either no DNA activator input or no crRNA conditions) were run with each assay to generate background fluorescence as negative controls. […]

LbaCas12a [2] = experiment: Cas12a fluorescent cleavage assay, DNA activators in solution; assay type: biochemical, Lachnospiraceae bacterium ND2006
Description: as §1, §2

tumor tissue homogenates = experiment: Tissue lysate proteolytic cleavage assay of FRET-paired peptide substrates; assay type: biochemical, Balb/c mice; settings: tumor-bearing or healthy lung tissue homogenates, ex vivo
Protocol: FIGS. 6A-6E show experiments relating to portable monitoring invasive CRC using DNA-encoded multiplex synthetic urine biomarkers. […] Peptide cleavage kinetics were monitored and cleavage rates were plotted (n=5 mice per group; ±SEM; unpaired t-test with Welch's correction, **P<0.01, ****P<0.0001). […] All urine samples were collected at 1 h after sensor administration. Cas12a trans-cleavage assays were performed against each DNA-barcode with the fluorophore-quencher paired reporter. Initial reaction velocity (V0) of the Cas12a trans-cleavage assays were calculated and normalized to that of saline injected control animals (n=8 or 10 mice per group; ±SEM; unpaired t-test with Welch's correction, *P<0.05, **P<0.01). The initial reaction velocity (V0) refers to the slope of the curve at the beginning of a reaction. […] Band intensities were quantified using ImageJ. […] ROC analysis utilized ratio of quantified cleaved reporter band intensity over its corresponding control band intensity. Dashed line represents an AUC of 0.5, and a perfect AUC is 1.0.
Tissue samples were homogenized in PBS and centrifuged at 4° C. for 5 min at 6,000×g. Supernatant was further centrifuged at 14,000×g for 25 min at 4° C. Protein concentration was measured using ThermoFisher BCA Protein Assay Kit and prepared at 2 mg/mL prior to assay. Assays were performed in the 384-well plate in triplicate in enzyme-specific buffer with peptides (1 μM) and cell lysates (0.33 mg/mL) in 30 μL at 37° C. Fluorescence was measured at Ex/Em 485/535 nm using a Tecan Infinite 200pro microplate reader (Tecan). Signal increase at 60 min was used across conditions.

[3] = test system: serine and metalloproteases; experiment: Recombinant protease substrate cleavage assay; assay type: biochemical
Protocol: Fluorogenic protease substrates with fluorophore (FAM) and quencher (CPQ2) were synthesized by CPC Scientific Inc. Recombinant proteases were purchased from Enzo Life Sciences and R&D Systems. Assays were performed in the 384-well plate in triplicate in enzyme-specific buffer with peptides (1 μM) and proteases (40 nM) in 30 μL at 37° C. Fluorescence was measured at Ex/Em 485/535 nm using a Tecan Infinite 200pro microplate reader (Tecan). Signal increase at 60 min was used across conditions.

subcutaneous PC-3 tumors = test system: subcutaneous PC-3 tumors; set-up: species or system nude mice; settings: mouse, in vivo
Protocol: Studies were performed in experimental animals with near-infrared dye labeled agents to minimize interference from autofluorescent background. Balb/c mice were intravenously injected with Cy5-labeled modified or native DNA molecules at 1 nmol per mouse, n=3 per condition. Urine samples from each mouse was collected at 30 min, 1, 2, 3, 4 hours after injection. C-met nanobodies were coupled with Sulfo-Cyanine7 NHS ester (Lumiprobe), reacted overnight, purified by spin filtration and injected into PC-3 tumor-bearing nude mice (1.5 nmol dye eq. of protein) via i.v. injection. After 24 hours, mice were euthanized and necropsy was performed to remove the tumors, lungs, heart, kidneys, liver, and spleen. Urine, blood and organs were scanned using IVIS Imaging Systems and ODYSSEY® CLx (LI-COR). Organ fluorescence was quantified in ImageStudio of ODYSSEY® CLx. Blood circulatory kinetics were monitored in Balb/c mice by serial blood draws at 10 min, 30 min, 120 min and 180 min after i.v. injection of Cy5-labeled DNA or PEG at 1 nmol dye per mouse. Blood for pharmacokinetics measurements was collected using tail vain bleeds. Blood was diluted in PBS with 5 mM EDTA to prevent clotting, centrifuged for 5 min at 5,000×g, and fluorescent reporter concentration was quantified in 384-well plates relative to standards (LI-COR ODYSSEY® CLx).

[4] = Solubility of purified recombinant nanobody; assay type: physicochemical; settings: after affinity and size-exclusion chromatography
Description: One major challenge for diagnosis and therapy of cancer is tailoring multiple disease signatures, which are defined by biological differences spanning genetic, transcriptomic, and proteomic differences between tumor and healthy tissue, while minimizing off-target effects (Hunter, K. Nature reviews. Cancer 2006, 6, 141). To this end, a tumor-targeting nanobody was re-engineered to construct protease-activatable nanobodies through programmable genetic encoding (FIGS. 5A-5B). Protease-activatable nanobodies were constructed by inserting a well characterized PLAU substrate (PQ2: GGSGRSANAK (SEQ ID NO: 3)) with an unpaired cysteine for one-step site-specific labeling of cargos via a thio-ether bond (see, e.g., Masa et al., Bioconjugate chemistry 2014, 25, 979). The cysteine was introduced at the carboxyl terminus, positioning the conjugation-site on the opposite side of the antigen-binding region to avoid antigen binding interference. To prevent possible misfolding caused by the internal disulfide bond present in the Nb, the peptide substrate with cysteine is spaced by a rigid linker (SPSTPPTPSPSTPP (SEQ ID NO: 6)) from the Nb sequence.

cMET = target: T2, cMET (human, UniProt P08581 25-1390); experiment: in vivo biodistribution (IVIS imaging) of Cy7-labelled nanobody after i.v. injection into nude mice bearing cMET-expressing PC-3 xenografts
T2 construct: whole, on cells; The target is presented on cMET- and PLAU-expressing tumors derived from PC-3 cells in nude mice; It is not a purified protein
T2 sequence (P08581 25-1390): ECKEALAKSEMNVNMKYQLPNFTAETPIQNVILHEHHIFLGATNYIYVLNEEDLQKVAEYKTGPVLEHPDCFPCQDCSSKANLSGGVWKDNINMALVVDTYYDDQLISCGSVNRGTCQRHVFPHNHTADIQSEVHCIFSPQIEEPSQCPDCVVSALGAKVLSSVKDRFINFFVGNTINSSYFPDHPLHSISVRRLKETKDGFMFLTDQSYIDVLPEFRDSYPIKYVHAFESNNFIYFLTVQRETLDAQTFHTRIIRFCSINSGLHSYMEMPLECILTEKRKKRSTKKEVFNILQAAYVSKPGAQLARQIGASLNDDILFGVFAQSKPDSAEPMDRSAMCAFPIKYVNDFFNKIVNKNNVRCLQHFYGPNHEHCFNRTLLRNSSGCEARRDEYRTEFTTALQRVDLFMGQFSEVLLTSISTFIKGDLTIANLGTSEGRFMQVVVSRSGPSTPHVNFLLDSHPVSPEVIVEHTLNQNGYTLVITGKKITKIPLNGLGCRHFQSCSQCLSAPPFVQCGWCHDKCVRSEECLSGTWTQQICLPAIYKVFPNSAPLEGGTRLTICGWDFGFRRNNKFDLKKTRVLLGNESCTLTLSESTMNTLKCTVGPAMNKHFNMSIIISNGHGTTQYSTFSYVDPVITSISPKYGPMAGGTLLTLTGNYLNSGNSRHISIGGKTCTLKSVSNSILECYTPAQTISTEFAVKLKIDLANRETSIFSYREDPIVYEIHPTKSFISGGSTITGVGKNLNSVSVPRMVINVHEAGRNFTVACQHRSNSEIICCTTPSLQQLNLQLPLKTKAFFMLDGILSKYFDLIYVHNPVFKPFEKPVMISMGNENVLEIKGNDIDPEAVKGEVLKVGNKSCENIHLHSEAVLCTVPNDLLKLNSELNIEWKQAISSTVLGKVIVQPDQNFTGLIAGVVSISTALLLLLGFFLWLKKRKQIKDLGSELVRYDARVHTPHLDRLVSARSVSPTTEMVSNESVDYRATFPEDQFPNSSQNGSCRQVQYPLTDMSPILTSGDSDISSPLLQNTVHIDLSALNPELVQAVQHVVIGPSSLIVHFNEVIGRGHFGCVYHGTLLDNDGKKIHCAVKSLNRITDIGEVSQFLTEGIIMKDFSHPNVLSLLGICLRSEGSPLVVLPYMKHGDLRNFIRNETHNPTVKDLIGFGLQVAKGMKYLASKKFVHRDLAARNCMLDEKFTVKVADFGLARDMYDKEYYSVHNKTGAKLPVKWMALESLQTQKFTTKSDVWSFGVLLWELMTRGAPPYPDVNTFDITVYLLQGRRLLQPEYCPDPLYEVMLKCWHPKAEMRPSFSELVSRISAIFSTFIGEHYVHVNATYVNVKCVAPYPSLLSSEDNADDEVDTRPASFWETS

PLAU (urokinase-type plasminogen activator), recombinant
cleavage of FRET-paired peptide substrate by recombinant protease (fluorogenic activity assay, FIG. 13D) (FRET-PAP11): The peptide substrate specifically responded to the PCa-associated protease PLAU

10 mer: native ssDNA activator CGTAACGATC (SEQ ID NO: 28) (unmodified DNA)
Native DNA in vivo (V0) (LbaCas12a [1]; 1 nmol native DNA activator injected into healthy Balb/c mice): 0.00 | Native DNA in vitro (V0) (LbaCas12a [2]; initial reaction velocity, 4 nM of native DNA activator per reaction): 0.00

Mod 10 mer: fully phosphorothioate-modified ssDNA activator, SEQ ID NO: 35 (DNA dC*dG*dT*dA*dA*dC*dG*dA*dT*dC)
Modified DNA in vivo (V0) (LbaCas12a [1]; 1 nmol modified DNA activator injected into healthy Balb/c mice): 0.01 | Modified DNA in vitro (V0) (LbaCas12a [2]; initial reaction velocity (slope at beginning of reaction), 4 nM of phosphorothioate-modified DNA activator per reaction): 0.01

FRET-PAP11: 5FAM-GGGSGRSANAKG-K(CPQ2)-PEG2-GC (SEQ ID NO: 65) (5FAM-GGGSGRSANAKGK(CPQ2)[PEG2′]GC)
cleavage by tissue homogenates (tumor tissue homogenates): specifically cleaved

FRET-PAP7: 5FAM-GGPLGVRGKK(CPQ2)-PEG2-GC (SEQ ID NO: 61) (5FAM-GGPLGVRGKK(CPQ2)[PEG2′]GC)
cleavage by tissue homogenates (tumor tissue homogenates): specifically cleaved

FRET-PAP9: 5FAM-GGfPRSGGGK(CPQ2)-PEG2-GC (SEQ ID NO: 63)
cleavage by tissue homogenates (tumor tissue homogenates): specifically cleaved; also recorded: distinct cleavage patterns | cleavage by recombinant proteases in vitro [3]: cleaved by serine and metalloproteases in vitro

FRET-PAP13: 5FAM-GGVPRGG-K(CPQ2)-PEG2-GC (SEQ ID NO: 67) (5FAM-GGVPRGGK(CPQ2)[PEG2′]GC)
cleavage by tissue homogenates (tumor tissue homogenates): specifically cleaved

B1: GFP nanobody: non-targeting nanobody against GFP (Clone LaG-16) with rigid linker, PLAU substrate and cysteine, SEQ ID NO: 72 (protein)
VHH: MAQVQLVESGGRLVQAGDSLRLSCAASGRTFSTSAMAWFRQAPGREREFVAAITWTVGNTILGDSVKGRFTISRDRAKNTVDLQMDNLEPEDTAVYYCSARSRGYVLSVLRSVDSYDYWGQGTQVTVSGSHHHHHHSPSTPPTPSPSTPPGSGRSANAKGGGSC
tumor trafficking upon systemic administration (subcutaneous PC-3 tumors): did not

B2: cMET nanobody: PLAU-activated, cMET-targeting nanobody with rigid linker, PLAU substrate and unpaired cysteine, SEQ ID NO: 71 (protein)
VHH: MEVQLVESGGGLVQPGGSLRLSCAASGFILDYYAIGWFRQAPGKEREGVLCIDASDDITYYADSVKGRFTISRDNAKNTVYLQMNSLKPEDTGVYYCATPIGLSSSCLLEYDYDYWGQGTLVTVSSGSHHHHHHSPSTPPTPSPSTPPGSGRSANAKGGGSC
solubility [4]: comparable solubility with the original Nb | tumor trafficking upon systemic administration (subcutaneous PC-3 tumors): mediated active tumor trafficking

B3: cMET nanobody (PLAU-activated, cMET-targeting nanobody) (VHH)
VHH: EVQLVESGGGLVQPGGSLRLSCAASGFILDYYAIGWFRQAPGKEREGVLCIDASDDITYYADSVKGRFTISRDNAKNTVYLQMNSLKPEDTGVYYCATPIGLSSSCLLEYDYDYWGQGTLVTVSS
modifications: labelled with Sulfo-Cyanine7 NHS ester for the biodistribution study (sites not given)
notes: also called C-met nanobodies; Nb-PAS
binding result (cMET): binds

— patent publication US20210262025A1, “MULTIPLEXED IN VIVO DISEASE SENSING WITH NUCLEIC ACID-BARCODED REPORTERS” (Massachusetts Institute of Technology, priority 2020, published 2021)
